Values after ≈ are worked out from the molar mass of the structure shown. Like-named read-outs stand apart in the source and are kept apart here. Marks after values point to notes of the source that are not given here.
How the values were obtained:
Meloidogyne incognita [1] = assay: Summer field evaluation of pre-plant incorporated compounds on squash; assay type: in vivo
Method: Test plots of 33 cm diameter holes were bored 41 cm deep into clay soil and filled with a mixture of 80% sand and 20% silt loam soil. Technical compound for each treatment was dissolved in 50 ml acetone containing 250 ul of Triton X-100 surfactant. This solution was added to 450 ml water and poured onto 95 liters of sand/soil mixture in a rotating drum mixer. While continuing to rotate the mixing drum 66 grams of chopped, galled, tomato roots was added and thoroughly distributed. The treated soil was sufficient to fill the top 15 cm of each of the 6 replicate plots, thus simulating a PPI treatment. The plots were then watered lightly and a mixture of M. incognita eggs and larvae were injected 5 cm deep at 5 points within the plot (100k eggs/larvae in 10m1 per plot). Three-week old squash (cv. Liberator III) with 1 fully expanded true leaf was planted 4 days after soil treatment, one per plot.

Meloidogyne incognita [2] = assay: Fall nematicidal field test on squash; settings: for RG28 % root galls at 28 days after treatment / RG43 % root galls at 43 days after treatment / RW28 root weight at 28 days after treatment / RW43 root weight at 43 days after treatment / TW28 top weight at 28 days after treatment: squash
Excerpt: The soil was a native prairie/pasture covering silty clay loam soil. […] Total volume of each hole was about 1.2 cubic feet. […] Holes were filled and then re-filled 5 days later after settling. […] Organic matter was 0.2% and pH was 6.8.
Treatments were arranged in a block design with the blocks laid out perpendicular to the primary slope and parallel to secondary slope. There are 7 inoculated controls and 5 non-inoculated controls and the distributions of disease severity appeared independent of location.
The resultant mix is the same as used in the standard greenhouse assays (10% acetone, 0.05% X100). The oxamyl treatments were prepared from Vydate 2L formulated the same way. The 500 ml was placed in a watering can and the entire volume was evenly sprinkled over the surface of the plot. No runoff occurred and pooling, if any, was short lived. The final drench volume was 0.58 ml/cm^2, compared to 0.2 ml/cm^2 used in our greenhouse, however the microplots are much deeper so the drench volume applied per soil volume treated is roughly the same.
Meloidogyne incognita eggs were harvested over a two week period and stored at approximately 5° C. until needed. A stock of 5.6 million vermiform eggs was adjusted to 9000/m1 in 620 ml. One day after treatment, two holes were made in each plot about 7 cm apart and equidistant from the squash plants. Five ml of egg suspension was pipetted into each hole, which was then sealed and the plot lightly watered. A total of 90,000 vermiform eggs were added to each plot.
The first root evaluation was at 28 DAT. The tops were cut off and weighed immediately in the field, and the roots were carefully dug out so as not to disturb the remaining plant.

[3] = system: Heterodera glycines (SCN); assay: Seed treatment test of soybean cyst nematode on soybean; assay type: in vivo; settings: Heterodera glycines, 672 h, read-out: percent cyst reduction relative to control blank treatment
Method: For a given concentration the chemical is dissolved in 500 ul of acetone and one gram of cucumber seed (RKN test) or soybean seed (SCN test) is added (e.g., 20 mg active ingredient in 500 ul acetone plus 1 gram of seed). The seed solutions are agitated until all seeds were thoroughly covered with the chemical solution. The acetone is then allowed to evaporate by air drying the seeds. The seeds are planted in 2-inch pots containing sandy soil and then the pots are inoculated with 1000 Meloidogyne incognita (RKN) or 1000 Heterodera glycines (SCN) eggs per pot three days after planting. Plants are rated for galling 14 days after egg inoculation for RKN or 28 days after egg inoculation for SCN.

Meloidogyne incognita [4] = assay: M. incognita miniaturized greenhouse assay on cucumber seedlings; assay type: in vivo
Method: The test compound is dissolved in an acetone solution and added to water. A sprouted cucumber seedling is placed into a vial with dry sand and the water-chemical solution is added immediately. Twenty four hours later Meloidogyne incognita eggs are added to the vials and 10 to 12 days later the roots are evaluated for nematode galling.
Cucumber seeds are sprouted for 3 days in moist paper towels. Acceptable sprouts should be 3 to 4 cm long with several lateral roots just emerging. Stock solutions of chemistry are prepared in a mixture of acetone and Triton X100 (412 mg in 500 mL) to a final concentration of 5 mg/mL. The chemical stock solution is then added to 10 mL deionized water plus 0.015% Triton X100 and mixed thoroughly. This is enough to test each condition in triplicate. Ten mL dry sand is added to each vial. At this time the solubility of the chemistry is visually determined and recorded as either ppt (large precipitates) or cloudy (fine precipitates). Seedlings are planted by tilting the vial and laying the seedling in the correct orientation so that the cotyledons are just above the sand and then tilting back to cover the radicles with sand. 3.3 ml water/chemical mix is added to each vial and the vials placed in racks under fluorescent light banks. The vials are inoculated two days after planting by adding 500 vermiform M. incognita eggs to each vial in 50 uL of deionized or spring water. The vials are then kept under the fluorescent lamps at ambient room temperature and watered as needed with 1mL deionized water, usually twice during duration of test. Harvest of the cucumber plants is done 10 to 12 days after inoculation by washing sand off the roots. A root gall rating and visual phytotoxicity rating is assigned using the following scales: Gall rating scale (Gall: % root mass galled): 0=0-5%; 1=6-20%; 2=21-50%; and 3=51-100%. The average of the triplicate gall rating is then calculated: green=0.00-0.33 (no galls); yellow=0.67-1.33 (mild galling); orange=1.67-2.33 (moderate galling); red=2.67-3.00 (severe galling). Visual phytotoxicity scale is also assigned (Vis. tox; visual reduction in root mass compared to the control): rs1=mild stunting; rs2=moderate stunting; rs3=severe stunting.

[5] = system: soybean cyst nematode (SCN); assay: SCN greenhouse sand assay on soybean plants; assay type: in vivo; settings: Glycine max, 672 h, read-out: percent control (cyst number reduction) relative to the control blank treatment; for pest or weed control at 2000 g/ha: 2 kg/ha
Excerpt: Soybeans seeds are planted in 100% sand in two inch square plastic pots. Chemical treatment is done when the soybeans show the first trifoliate beginning to emerge about 10 to 12 days after planting. At least four hours after chemical application the nematode soybean cyst nematode (SCN) eggs are applied and 28 days after the egg inoculation the test is harvested.
One milligram of chemistry per four pots is equal to one kilogram per hectare of chemical. A standard test uses four replications. For rates above 2 kg/ha, the desired amount of chemical is weighed into a 30 ml vial (example: 8 kg/ha rate =8 mg chemical in 30 ml vial). The chemical is dissolved in 2 ml of appropriate solvent, generally acetone. For rates below 2 kg/ha, 2 milligrams of chemistry is weighed into the vial and dissolved in 2 ml of the solvent. The appropriate amount of chemical concentrate is then pipetted into a separate 30 ml vial and solvent is added to bring the volume to 2 ml (example 0.5 kg/ha=0.5 ml of concentrate+1.5 ml solvent). Each dissolved concentrate is then brought to a total of 20 milliliters using 0.05% Triton X 100 surfactant solution.
Pots to be treated are moist but not saturated. To each of four pots, five milliliters of the appropriate chemical solution is pipetted to the media surface making sure to avoid contact with the base of the plant. Immediately following chemical application, using a mist nozzle, the pot surface is wetted sufficiently to saturate the pot watering in the chemistry. The chemical application is done in the morning.
Nematode eggs, either SCN or RKN, are added to distilled water to create a concentration of 1000 vermiform eggs […]. At least four hours after chemical treatment the eggs are applied to the treated pots plus non-treated check plants. A small hole about 1 cm deep is punched into the pot surface. One milliliter of the nematode egg slurry is pipetted into the hole. Immediately afterwards the hole is gently covered. Watering of the test plants is then restricted to only water as needed to prevent wilt for a period of 24 hours. After the 24 hour restricted watering, normal sub-irrigation watering is done for the duration of the test.

[6] = assay type: in vivo; settings: 500 mg/kg oral, three female mice, observed up to 14 days
Method: Acute oral toxicity testing was performed in mice in accordance with test method P203.UDP, as administered by Eurofins/Product Safety Laboratories (Dayton, New Jersey). CD-1/Swiss derived albino mice were obtained and group housed in suspended solid bottom caging. The mice were fed rodent chow and filtered tap water was supplied ad libitum. Following acclimation to the laboratory setting, a group of animals was fasted overnight by removing food from the cages. After the fasting period, three female mice were selected based on vitality and initial body weights. The individual compound doses were calculated from these body weights.
The test substance was prepared as a 1% (50 mg/kg) or 5% (500 mg/kg) weight to weight (w/w) mixture in a 0.5% w/w solution of carboxymethylcellulose (CMC) in distilled water. A tissue homogenizer was used to create a homogeneous mixture. A dose of 50 or 500 mg/kg was administered to three healthy mice per dose level by oral intubation using a ball-tipped gavage needle attached to a syringe. After administration, the animals were returned to their cages, and feed was replaced immediately after dosing.
Body weights were recorded prior to initiation and on Days 7 and 14 or a soon as possible after death.

C. elegans = assay: Three day C. elegans well assay; assay type: in vivo; settings: Caenorhabditis elegans, L1 larvae
Method: Various compounds were tested for nematicidal activity against C. elegans using contact assays in wells. The assays were performed as described below. The test compounds were solubilized in DMSO at 10 mg/ml to create 100× stock solutions. A dilution series was created by diluting the stock solution with DMSO. For each well assay 4 ul of the appropriate dilution is added to a well of a test plate. A 400 ul aliquot of bacterial stock (in M9 buffer with ampicillin and nystatin) are added to each well of the test plate. Worms are added and the test plate placed on a rotary shaker and held at 20° C. Worms are examined and scored at 4 hrs, 24 hrs, 48 hrs and 72 hours. L1 worms and L4 worms were used in the assay. L1 worms are prepared by plating eggs on a plate without a bacterial feeding layer. The eggs hatch and arrest at the L1 stage. This L1 stage population is then used to create a stock for the experiments. To create an L4 stage stock a small number of worms are taken from an overgrown and starved plate of worms and seeded on a plate with a bacterial feeder layer. A 25 ul aliquot of worms is added to each well in the assay.

## CNC(=O)O/N=C(\SC)C(=O)N(C)C [Oxamyl]
Meloidogyne incognita [1]; 4 kg/ha PPI, squash
  0-3 vigor 16DAP: 2.7
  0-3 vigor 21DAP: 2.5
  feeder root (3 = ave) 31DAP: 3.0
  gall % 31DAP: 85%
  root wgt (g) 31DAP: 37.0 g
  top wgt (lbs) 31DAP: 1.16 lbs
  total fruit (lbs): 1.09 lbs
Meloidogyne incognita [2]; 2 kg ai/ha
  RG28 % root galls at 28 days after treatment: 45.0%
  RG43 % root galls at 43 days after treatment: 42.3%
  RW28 root weight at 28 days after treatment: 5.6
  RW43 root weight at 43 days after treatment: 14.3
  TW28 top weight at 28 days after treatment: 136.8
Meloidogyne incognita [2]; 5 kg ai/ha
  RG28 % root galls at 28 days after treatment: 10.5%
  RG43 % root galls at 43 days after treatment: 17.3%
  RW28 root weight at 28 days after treatment: 6.6
  RW43 root weight at 43 days after treatment: 12.7
  TW28 top weight at 28 days after treatment: 232.1
[3]
  pest or weed control at 0.375 mg/g: -4%
  pest or weed control at 1.5 mg/g: 71%
Meloidogyne incognita [4]; 1 ppm (oxamyl), Table 1A
  gall ratings: 0.67
Meloidogyne incognita [4]; Table 1B test a
  1 ppm gall ratings: 0.67
Meloidogyne incognita [4]; Table 1B test b
  1 ppm gall ratings: 1 (1=6-20%)
Meloidogyne incognita [4]; Table 1B test c
  1 ppm gall ratings: 1.33
Meloidogyne incognita [4]; Table 1B test d
  1 ppm gall ratings: 1.33
Meloidogyne incognita [4]; Table 1B test e
  1 ppm gall ratings: 1 (1=6-20%)
Meloidogyne incognita [4]; Table 1C test a
  1 ppm gall rating: 1.33
Meloidogyne incognita [4]; Table 1C test b
  1 ppm gall rating: 1 (1=6-20%)
Meloidogyne incognita [4]; Table 1C test c
  1 ppm gall rating: 0.67^c
Meloidogyne incognita [4]; Table 1D test a
  1 ppm gall rating: 1.33
Meloidogyne incognita [4]; Table 1D test b
  1 ppm gall rating: 1 (1=6-20%)

## c1ccc(-c2cnc(-c3cccs3)o2)cc1 [compound 4417]
Meloidogyne incognita [2]; 2 kg ai/ha
  RW28 root weight at 28 days after treatment: 5.3
  RW43 root weight at 43 days after treatment: 16.4
  TW28 top weight at 28 days after treatment: 97.5
Meloidogyne incognita [2]; 2 kg/ha, five days after treatment (5 DAT)
  Leaf diameter of the first true leaves: slight reduction
Meloidogyne incognita [2]; 2 kg/ha, two days after treatment, squash seedlings
  phytotoxicity: slight phytotoxicity
[5]; test b
  pest or weed control at 2000 g/ha: 94%
[6]
  acute oral toxicity: mortality and signs: One animal died within four days

## Clc1ccc(-c2nnc(-c3cccs3)o2)cc1 [compound 4559]
Meloidogyne incognita [2]; 2 kg ai/ha
  RW28 root weight at 28 days after treatment: 6.4
  RW43 root weight at 43 days after treatment: 13.2
  TW28 top weight at 28 days after treatment: 150.8
Meloidogyne incognita [2]; 43 day time point
  control of root galling compared with oxamyl at an equivalent rate: significantly better than oxamyl
[5]; test a
  pest or weed control at 2000 g/ha: 98%

## Fc1ccc(-c2cnc(-c3cccs3)o2)cc1 [compound 4775]
[5]; test b
  pest or weed control at 2000 g/ha: 95%
[6]
  acute oral toxicity: mortality and signs: all animals survived

## FC(F)(F)c1cccc(-c2noc(-c3ccco3)n2)c1 [compound 5181]
[5]; test a
  pest or weed control at 2000 g/ha: 100%

## c1cncc(-c2noc(-c3ccco3)n2)c1 [compound 5292]
[5]; test a
  pest or weed control at 2000 g/ha: 92%

## Cc1occc1-c1nc(-c2ccc(Cl)cc2)no1 [compound 5867]
Meloidogyne incognita [4]; Table 1C test a
  1 ppm gall rating: 1 ^a (1=6-20%)

## COc1ccc(-c2noc(-c3ccoc3C)n2)cc1 [compound 5869]
Meloidogyne incognita [4]; Table 1C test a
  1 ppm gall rating: 1 ^a (1=6-20%)

## Cc1cc(Br)ccc1-c1nsc(-c2ccco2)n1 [compound 5939]
[5]; 0.1 kg/ha, test d
  pest or weed control at 100 g/ha: 64%
[5]; 0.25 kg/ha, test d
  pest or weed control at 250 g/ha: 88%
C. elegans; 24 h, one day of exposure, read-out: EC50 L1 1D
  EC50: 0.4 µg/mL (≈ 1.25 µM)
C. elegans; 48 h, two days of exposure, read-out: EC50 L1 2D
  EC50: 0.4 µg/mL (≈ 1.25 µM)
C. elegans; 72 h, three days of exposure, read-out: EC50 L1 3D
  EC50: 0.4 µg/mL (≈ 1.25 µM)

## Clc1ccc(-c2nsc(-c3ccco3)n2)c(Cl)c1 [compound 5960]
Meloidogyne incognita [1]; 4 kg/ha
  control of M. incognita by PPI application: significant control
[6]
  acute oral toxicity: mortality and signs: all animals survived

Source: US20170367338A1, “COMPOSITIONS AND METHODS FOR IMPROVING AGRONOMIC CHARACTERISTICS OF PLANTS” (MONSANTO TECHNOLOGY LLC, priority 2014, published 2017)
